In patent US20020137929A1, “1 - (3-heterocyclylphenyl) isothiourea, -isourea, -guanidine and -amidine herbicidal agents” (Intellectual Property Department, BASF Aktiengesellschaft, priority 1998, published 2002):

How the values were obtained:
CASOB (Sicklepod) = assay: Postemergence herbicidal evaluation; type: in vivo, Cassia obtusifolia; conditions: postemergence
Procedure, shortened: (§1)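 Two-week-old seedlings sprayed with compound in 50/50 acetone/water plus 0.5% TWEEN 20, at about 0.0156 to 0.500 kg/ha, nozzle at 40 psi. Kept in greenhouse; rated visually 4-5 weeks after treatment on a 0-9 scale versus control, repeat tests averaged.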

[1] = system: CHEAL (Lambsquarters, Common); assay: Postemergence herbicidal evaluation; type: in vivo, Chenopodium album; conditions: postemergence
Procedure, shortened: as §1

GALAP (Galium) = assay: Postemergence herbicidal evaluation; type: in vivo, Galium aparine; conditions: postemergence
Procedure, shortened: as §1

ORYSAT (Rice, Tebonnet) [2] = assay: Postemergence herbicidal evaluation; type: in vivo, Oryza sativa, (L.) Tebonnet; conditions: postemergence
Procedure, shortened: as §1

ZEAMX (Corn, Field) = assay: Postemergence herbicidal evaluation; type: in vivo, Zea mays; conditions: postemergence
Procedure, shortened: as §1

AMBEL (Ragweed, Common) = assay: Preemergence herbicidal evaluation; type: in vivo, Ambrosia artemisifolia; conditions: rated 4-5 weeks after treatment, rating scale 0-9
Procedure, shortened: (§2)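 Herbicidal effect scored visually, 0-9, at 4 to 5 weeks against a control; compound applied preemergence by aqueous acetone spray to seeded soil at about 0.0156 to 0.500 kg/ha.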

SETVI (Foxtail, Green) = assay: Preemergence herbicidal evaluation; type: in vivo, Setaria viridis; conditions: rated 4-5 weeks after treatment, rating scale 0-9
Procedure, shortened: as §2

[3] = system: GLXMAW (Soybean, Williams); assay: Preemergence herbicidal evaluation; type: in vivo, Glycine max, (L.) Merr. cv Williams; conditions: rated 4-5 weeks after treatment, rating scale 0-9
Procedure, shortened: as §2

ORYSAT (Rice, Tebonnet) [4] = assay: Preemergence herbicidal evaluation; type: in vivo, Oryza sativa, (L.) Tebonnet; conditions: rated 4-5 weeks after treatment, rating scale 0-9
Procedure, shortened: as §2

CYPSE (Flatsedge) = assay: Preemergence weed control under flooded paddy conditions; type: in vivo, Cyperus serotinus; conditions: rated 3-4 weeks after treatment
Procedure, shortened: (§3)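 Herbicidal effect is scored visually on a 0-9 scale against an untreated control, three to four weeks after compounds are pipetted into the flood water (1.5 to 3 cm deep) over seeds planted in silt loam at 0.5 cm depth. Rates: about 0.0313 to 0.500 kg/ha.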

MOOVA (Monochoria) = assay: as above; type: in vivo, Monochoria vaginalis; conditions: rated 3-4 weeks after treatment
Procedure, shortened: as §3

Cc1cc(C)cc(CN2C(=O)CSC2=Nc2cc(-n3c(=O)cc(C(F)(F)F)n(C)c3=O)c(F)cc2Cl)c1 [Compound 146, 3-{4-Chloro-5-{[3-(3,5-dimethylbenzyl)-4-oxo-2-thiazolidinylidene]amino}-2-fluorophenyl}-1-methyl-6-(trifluoromethyl)-2,4(1H,3H)-pyrimidinedione]
2.0: Herbicidal rating CASOB (CASOB (Sicklepod); rate 0.0313 kg/ha) | Herbicidal rating GALAP (GALAP (Galium); rate 0.0156 kg/ha) | Herbicidal rating GALAP (GALAP (Galium); rate 0.0313 kg/ha) | Herbicidal rating ORYSAT (ORYSAT (Rice, Tebonnet) [2]; rate 0.0156 kg/ha)
0.0: Preemergence herbicidal rating AMBEL (AMBEL (Ragweed, Common); rate 0.0156 kg/ha) | Preemergence herbicidal rating AMBEL (AMBEL (Ragweed, Common); rate 0.0313 kg/ha) | Preemergence herbicidal rating AMBEL (AMBEL (Ragweed, Common); rate 0.0625 kg/ha) | Preemergence herbicidal rating AMBEL (AMBEL (Ragweed, Common); rate 0.1250 kg/ha) | Preemergence herbicidal rating SETVI (SETVI (Foxtail, Green); rate 0.0156 kg/ha) | Preemergence herbicidal rating SETVI (SETVI (Foxtail, Green); rate 0.0313 kg/ha) | Preemergence herbicidal rating SETVI (SETVI (Foxtail, Green); rate 0.0625 kg/ha) | Preemergence herbicidal rating GLXMAW ([3]; rate 0.0156 kg/ha) | Preemergence herbicidal rating GLXMAW ([3]; rate 0.0313 kg/ha) | Preemergence herbicidal rating GLXMAW ([3]; rate 0.0625 kg/ha) | Preemergence herbicidal rating GLXMAW ([3]; rate 0.1250 kg/ha) | Preemergence herbicidal rating ORYSAT (ORYSAT (Rice, Tebonnet) [4]; rate 0.0156 kg/ha) | Preemergence herbicidal rating ORYSAT (ORYSAT (Rice, Tebonnet) [4]; rate 0.0313 kg/ha) | Preemergence herbicidal rating ORYSAT (ORYSAT (Rice, Tebonnet) [4]; rate 0.0625 kg/ha) | Preemergence herbicidal rating ORYSAT (ORYSAT (Rice, Tebonnet) [4]; rate 0.1250 kg/ha) | herbicidal effect rating, CYPSE (CYPSE (Flatsedge); 0.0313 kg/ha) | herbicidal effect rating, CYPSE (CYPSE (Flatsedge); 0.0625 kg/ha) | herbicidal effect rating, CYPSE (CYPSE (Flatsedge); 0.1250 kg/ha) | herbicidal effect rating, CYPSE (CYPSE (Flatsedge); 0.2500 kg/ha)
6.0: herbicidal effect rating, MOOVA (MOOVA (Monochoria); 0.0625 kg/ha) | herbicidal effect rating, MOOVA (MOOVA (Monochoria); 0.1250 kg/ha)
3.0: Preemergence herbicidal rating AMBEL (AMBEL (Ragweed, Common); rate 0.2500 kg/ha) | Preemergence herbicidal rating SETVI (SETVI (Foxtail, Green); rate 0.1250 kg/ha)
4.0: Herbicidal rating CASOB (CASOB (Sicklepod); rate 0.0625 kg/ha) | Herbicidal rating GALAP (GALAP (Galium); rate 0.0625 kg/ha) | Herbicidal rating ORYSAT (ORYSAT (Rice, Tebonnet) [2]; rate 0.0625 kg/ha) | Herbicidal rating ZEAMX (ZEAMX (Corn, Field); rate 0.0156 kg/ha) | herbicidal effect rating, MOOVA (MOOVA (Monochoria); 0.0313 kg/ha)
1.0: Herbicidal rating CASOB (CASOB (Sicklepod); rate 0.0156 kg/ha) | Preemergence herbicidal rating GLXMAW ([3]; rate 0.2500 kg/ha) | Preemergence herbicidal rating ORYSAT (ORYSAT (Rice, Tebonnet) [4]; rate 0.2500 kg/ha)
5.0: Preemergence herbicidal rating SETVI (SETVI (Foxtail, Green); rate 0.2500 kg/ha)
9.0: Herbicidal rating CHEAL ([1]; rate 0.0156 kg/ha) | Herbicidal rating CHEAL ([1]; rate 0.0313 kg/ha) | Herbicidal rating CHEAL ([1]; rate 0.0625 kg/ha) | herbicidal effect rating, MOOVA (MOOVA (Monochoria); 0.2500 kg/ha)
3.5: Herbicidal rating ORYSAT (ORYSAT (Rice, Tebonnet) [2]; rate 0.0313 kg/ha)
4.5: Herbicidal rating ZEAMX (ZEAMX (Corn, Field); rate 0.0313 kg/ha) | Herbicidal rating ZEAMX (ZEAMX (Corn, Field); rate 0.0625 kg/ha)

Cc1ccc(CN2C(=O)CSC2=Nc2cc(-n3c(=O)cc(C(F)(F)F)n(C)c3=O)c(F)cc2Cl)cc1Cl [Compound 149, 3-{4-Chloro-5-{[3-(3-chloro-4-methylbenzyl)-4-oxo-2-thiazolidinylidene]amino}-2-fluorophenyl}-1-methyl-6-(trifluoromethyl)-2,4(1H,3H)-pyrimidinedione]
2.0: Herbicidal rating GALAP (GALAP (Galium); rate 0.0625 kg/ha) | Preemergence herbicidal rating ORYSAT (ORYSAT (Rice, Tebonnet) [4]; rate 0.1250 kg/ha) | Preemergence herbicidal rating ORYSAT (ORYSAT (Rice, Tebonnet) [4]; rate 0.2500 kg/ha)
1.0: Herbicidal rating ORYSAT (ORYSAT (Rice, Tebonnet) [2]; rate 0.0313 kg/ha) | Herbicidal rating ORYSAT (ORYSAT (Rice, Tebonnet) [2]; rate 0.0625 kg/ha)
5.0: herbicidal effect rating, MOOVA (MOOVA (Monochoria); 0.0313 kg/ha)
0.5: Herbicidal rating ORYSAT (ORYSAT (Rice, Tebonnet) [2]; rate 0.0156 kg/ha)
4.0: Herbicidal rating CHEAL ([1]; rate 0.0625 kg/ha) | Herbicidal rating ZEAMX (ZEAMX (Corn, Field); rate 0.0156 kg/ha)
0.0: Herbicidal rating CASOB (CASOB (Sicklepod); rate 0.0156 kg/ha) | Herbicidal rating CASOB (CASOB (Sicklepod); rate 0.0313 kg/ha) | Herbicidal rating CASOB (CASOB (Sicklepod); rate 0.0625 kg/ha) | Herbicidal rating GALAP (GALAP (Galium); rate 0.0156 kg/ha) | Herbicidal rating GALAP (GALAP (Galium); rate 0.0313 kg/ha) | Preemergence herbicidal rating AMBEL (AMBEL (Ragweed, Common); rate 0.1250 kg/ha) | Preemergence herbicidal rating AMBEL (AMBEL (Ragweed, Common); rate 0.2500 kg/ha) | Preemergence herbicidal rating SETVI (SETVI (Foxtail, Green); rate 0.1250 kg/ha) | Preemergence herbicidal rating SETVI (SETVI (Foxtail, Green); rate 0.2500 kg/ha) | herbicidal effect rating, CYPSE (CYPSE (Flatsedge); 0.0313 kg/ha) | herbicidal effect rating, CYPSE (CYPSE (Flatsedge); 0.0625 kg/ha) | herbicidal effect rating, CYPSE (CYPSE (Flatsedge); 0.1250 kg/ha) | herbicidal effect rating, CYPSE (CYPSE (Flatsedge); 0.2500 kg/ha)
7.0: Preemergence herbicidal rating GLXMAW ([3]; rate 0.2500 kg/ha) | herbicidal effect rating, MOOVA (MOOVA (Monochoria); 0.0625 kg/ha) | herbicidal effect rating, MOOVA (MOOVA (Monochoria); 0.1250 kg/ha) | herbicidal effect rating, MOOVA (MOOVA (Monochoria); 0.2500 kg/ha)
4.5: Herbicidal rating ZEAMX (ZEAMX (Corn, Field); rate 0.0313 kg/ha) | Herbicidal rating ZEAMX (ZEAMX (Corn, Field); rate 0.0625 kg/ha)
3.0: Herbicidal rating CHEAL ([1]; rate 0.0156 kg/ha) | Herbicidal rating CHEAL ([1]; rate 0.0313 kg/ha) | Preemergence herbicidal rating GLXMAW ([3]; rate 0.1250 kg/ha)
